The test system of experiment [1] is IL-4 stimulated expression of CD23 in human Ramos B cells (JAK-1 and JAK-3). Briefly: Assay for Ramos B-Cell Line Stimulated with IL-4 (CD23 upregulation, FACS). The experiment is classed as cell-based. The following applies: Homo sapiens, Ramos, Ramos B cells stimulated with IL-4, CD23 expression by FACS; read-out: IC50, Example 41. An outline of the steps:
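Compound effect on IL-4-driven JAK1/JAK3 signalling is gauged as CD23 surface expression, measured by FACS after 20-24 h of stimulation with IL-4 at 50 units/mL final. A 1 h compound pre-treatment at 37 °C precedes stimulation, and IC50 is derived from the results.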
(In general: A flow cytometer gives signals particle by particle.)

For a further experiment, the system named is Primary human T-cells. Briefly: Primary Human T-Cell Proliferation Assay Stimulated with IL-2 (CellTiter-Glo). The experiment is classed as cell-based. The following applies: Homo sapiens, T-cell, primary human T-cells stimulated with IL-2, proliferation; read-out: IC50, Example 42. The method in brief:
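Peripheral blood T-cells pre-activated with anti-CD3/anti-CD28 and IL-2 were washed free of IL-2, then cultured with compound plus IL-2 for 72 hours at 37° C, duplicate wells. Viability read as ATP by CellTiter-Glo luminescence; IC50 reported.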
In general terms: In ATP-based viability assays light output follows the ATP content of the culture.

As usually defined, the IC50 is the concentration that gives 50% inhibition. For the molecule `Cc1cc(Nc2ncc(F)c(Nc3ccc(OC(F)(F)F)c(Cl)c3)n2)cc(S(N)(=O)=O)c1Cl` [VI-18, N2-(3-Aminosulfonyl-4-chloro-5-methylphenyl)-N4-(3-chloro-4-trifluoromethoxyphenyl)-5-fluoro-2,4-pyrimidinediamine], the 50% inhibitory concentration (IC50) in experiment [1] was 257 nM; in the experiment on Primary human T-cells, 4370 nM.
In the same order, the values of `COc1ccc(Nc2nc(Nc3cccc(S(N)(=O)=O)c3)ncc2Br)cc1Cl` [VI-26, N2-(3-aminosulfonylphenyl)-5-bromo-N4-(3-chloro-4-methoxyphenyl)-2,4-pyrimidinediamine] are 44.4 nM and 28.9 nM.
With `COc1c(C)cc(Nc2ncc(F)c(Nc3ccc(C(C)(C)C)cc3)n2)cc1S(N)(=O)=O` [VI-37, N2-(3-Aminosulfonyl-4-methoxy-5-methylphenyl)-N4-(4-tert-butylphenyl)-5-fluoro-2,4-pyrimidinediamine], the IC50 in experiment [1] amounted to 69.2 nM; with Primary human T-cells, 1080 nM.
As for `COc1ccc(Nc2nc(Nc3ccc(C(C)C)c(S(N)(=O)=O)c3)ncc2F)cc1Cl` [VI-45, N2-(3-Aminosulfonyl-4-iso-propylphenyl)-N4-(3-chloro-4-methoxy-phenyl)-5-fluoro-2,4-pyrimidinediamine], the IC50 in experiment [1] was 108 nM; in the experiment with Primary human T-cells, 1330 nM.
In the same order, the values of `CNC(=O)OCc1cccc(Nc2nc(Nc3ccc(C)c(S(N)(=O)=O)c3)ncc2F)c1` [VI-49, N2-(3-Aminosulfonyl-4-methylphenyl)-5-fluoro-N4-[3-(methylaminocarbonyloxymethyl)phenyl]-2,4-pyrimidinediamine] are 268 nM and 1260 nM.
The corresponding values for `Cc1ccc(Nc2ncc(F)c(Nc3ccc(C(F)(F)F)cc3)n2)cc1S(N)(=O)=O` [VI-50, N2-(3-Aminosulfonyl-4-methylphenyl)-5-fluoro-N4-(4-trifluoromethylphenyl)-2,4-pyrimidinediamine] are 217 nM and 944 nM.
For the molecule `NS(=O)(=O)c1cccc(Nc2ncc(F)c(Nc3ccc(C(F)(F)F)cc3)n2)c1` [VI-51, N2-(3-Aminosulfonylphenyl)-5-fluoro-N4-(4-trifluoromethylphenyl)-2,4-pyrimidinediamine], the IC50 turned out to be 152 nM in experiment [1] and 547 nM in the experiment with Primary human T-cells.
With `Cc1ccc(Nc2ncc(F)c(Nc3ccc(CO)cc3)n2)cc1S(N)(=O)=O` [VI-52, N2-(3-Aminosulfonyl-4-methylphenyl)-5-fluoro-N4-(4-hydroxymethylphenyl)-2,4-pyrimidinediamine], the half-inhibitory concentration (IC50) in experiment [1] came to 168 nM; in the experiment on Primary human T-cells, 162 nM.
With `C#CCOc1ccc(Nc2nc(Nc3ccc(C)c(S(N)(=O)=O)c3)ncc2F)cc1` [VI-53, N2-(3-Aminosulfonyl-4-methylphenyl)-5-fluoro-N4-[4-(prop-2-ynyloxy)phenyl]-2,4-pyrimidinediamine], the half-maximal inhibitory concentration (IC50) in experiment [1] is 56.3 nM; in the experiment on Primary human T-cells, 181 nM.
In the case of `C=Cc1ccc(Nc2nc(Nc3ccc(C)c(S(N)(=O)=O)c3)ncc2F)cc1` [VI-54, N2-(3-Aminosulfonyl-4-methylphenyl)-5-fluoro-N4-(4-vinylphenyl)-2,4-pyrimidinediamine], the IC50 in experiment [1] turned out to be 147 nM; with Primary human T-cells, 967 nM.
For the molecule `C#CCOc1ccc(Nc2nc(Nc3ccc(Cl)c(S(N)(=O)=O)c3)ncc2F)cc1` [VI-55, N2-(3-Aminosulfonyl-4-chlorophenyl)-5-fluoro-N4-[4-(prop-2-ynyloxy)phenyl]-2,4-pyrimidinediamine], the half-maximal inhibitory concentration (IC50) turned out to be 122 nM in experiment [1] and 625 nM with Primary human T-cells.
In the same order, the values of `C#CCOc1ccc(Nc2nc(Nc3ccc(C)c(S(N)(=O)=O)c3)ncc2F)cc1Cl` [VI-59, N2-(3-Aminosulfonyl-4-methylphenyl)-N4-[3-chloro-4-(prop-2-ynyloxy)phenyl]-5-fluoro-2,4-pyrimidinediamine] are 76 nM and 340 nM.
Consider `C#CCOc1ccc(Nc2nc(Nc3ccc(C)c(S(N)(=O)=O)c3)ncc2F)cc1F` [VI-60, N2-(3-Aminosulfonyl-4-methylphenyl)-5-fluoro-N4-[3-fluoro-4-(prop-2-ynyloxy)phenyl]-2,4-pyrimidinediamine], for which the 50% inhibitory concentration (IC50) in experiment [1] is 86.9 nM; with Primary human T-cells it was 187 nM.
Consider `CC#CCOc1ccc(Nc2nc(Nc3ccc(C)c(S(N)(=O)=O)c3)ncc2F)cc1` [VI-61, N2-(3-Aminosulfonyl-4-methylphenyl)-N4-[4-(but-2-ynyloxy)phenyl]-5-fluoro-2,4-pyrimidinediamine], for which the half-inhibitory concentration (IC50) in experiment [1] came to 99 nM; in the experiment with Primary human T-cells, 185 nM.
The corresponding values for `C#CCOc1ccc(Nc2nc(Nc3ccc(C(C)C)c(S(N)(=O)=O)c3)ncc2F)cc1` [VI-63, N2-[3-Aminosulfonyl-4-(2-propyl)phenyl]-5-fluoro-N4-[4-(prop-2-ynyloxy)phenyl]-2,4-pyrimidinediamine] are 160 nM and 363 nM.
In the same order, the values of `C#CCNc1ccc(Nc2nc(Nc3ccc(C)c(S(N)(=O)=O)c3)ncc2F)cc1` [VI-65, N2-(3-Aminosulfonyl-4-methylphenyl)-5-fluoro-N4-[4-(prop-2-ynylamino)phenyl]-2,4-pyrimidinediamine] are 90.6 nM and 209 nM.
In the same order, the values of `C#CCOc1ccc(Nc2nc(Nc3ccc(C)c(S(=O)(=O)NC)c3)ncc2F)cc1` [VI-68, 5-Fluoro-N2-(4-methyl-3-methylaminosulfonylphenyl)-N4-[4-(prop-2-ynyloxy)phenyl]-2,4-pyrimidinediamine] are 102 nM and 742 nM.
Turning to `C#CCOc1ccc(Nc2nc(Nc3ccc(N4CCN(C)CC4)c(S(N)(=O)=O)c3)ncc2F)cc1` [VI-70, N2-[3-Aminosulfonyl-4-(1-methylpiperazin-4-yl)phenyl]-5-fluoro-N4-[4-(prop-2-ynyloxy)phenyl]-2,4-pyrimidinediamine], the IC50 came to 70.6 nM in experiment [1] and 311 nM in the experiment on Primary human T-cells.
In the same order, the values of `C#CCOC(=O)NCc1ccc(Nc2nc(Nc3cccc(S(N)(=O)=O)c3)ncc2F)cc1` [VI-74, N2-(3-Aminosulfonylphenyl)-5-fluoro-N4-{4-[(prop-2-ynyloxy)carbonylaminomethyl]phenyl}-2,4-pyrimidinediamine] are 94.6 nM and 348 nM.
The corresponding values for `NS(=O)(=O)c1cccc(Nc2ncc(F)c(Nc3ccc(CCCF)cc3)n2)c1` [VI-83, N2-(3-Aminosulfonylphenyl)-5-fluoro-N4-[4-(3-fluoropropyl)phenyl]-2,4-pyrimidinediamine] are 113 nM and 293 nM.
In the same order, the values of `Cc1ccc(Nc2ncc(F)c(Nc3ccc(CCCF)cc3)n2)cc1S(N)(=O)=O` [VI-84, N2-(3-Aminosulfonyl-4-methylphenyl)-5-fluoro-N4-[4-(3-fluoropropyl)phenyl]-2,4-pyrimidinediamine] are 132 nM and 514 nM.
Consider `NS(=O)(=O)c1ccc(Nc2ncc(F)c(Nc3ccc(CCCO)cc3)n2)cc1` [VI-85, N2-(4-Aminosulfonylphenyl)-5-fluoro-N4-[4-(3-hydroxypropyl)phenyl]-2,4-pyrimidinediamine], for which the half-maximal inhibitory concentration (IC50) in experiment [1] amounted to 129 nM; in the experiment with Primary human T-cells, 762 nM.
`NS(=O)(=O)c1cccc(Nc2ncc(F)c(Nc3ccc(CCCO)cc3)n2)c1` [VI-86, N2-(3-Aminosulfonylphenyl)-5-fluoro-N4-[4-(3-hydroxypropyl)phenyl]-2,4-pyrimidinediamine]: the half-inhibitory concentration (IC50) amounted to 153 nM in experiment [1] and 178 nM in the experiment on Primary human T-cells.
On to `NS(=O)(=O)c1ccc(Nc2ncc(F)c(Nc3ccc(CCCCO)cc3)n2)cc1` [VI-88, N2-(4-Aminosulfonylphenyl)-5-fluoro-N4-[4-(4-hydroxybutyl)phenyl]-2,4-pyrimidinediamine], for which the IC50 in experiment [1] is 216 nM; with Primary human T-cells, 1190 nM.
In the same order, the values of `NS(=O)(=O)c1cccc(Nc2ncc(F)c(Nc3ccc(CCCCO)cc3)n2)c1` [VI-89, N2-(3-Aminosulfonylphenyl)-5-fluoro-N4-[4-(4-hydroxybutyl)phenyl]-2,4-pyrimidinediamine] are 132 nM and 171 nM.
The corresponding values for `NS(=O)(=O)c1cccc(Nc2ncc(F)c(Nc3ccc(CCCCF)cc3)n2)c1` [VI-92, N2-(3-Aminosulfonylphenyl)-5-fluoro-N4-[4-(4-fluorobutyl)phenyl]-2,4-pyrimidinediamine] are 83.5 nM and 107 nM.
In the case of `NS(=O)(=O)c1cc(Nc2ncc(F)c(Nc3ccc(O)cc3)n2)ccc1F` [VI-100, N2-(3-Aminosulfonyl-4-fluorophenyl)-5-fluoro-N4-(4-hydroxyphenyl)-2,4-pyrimidinediamine], the IC50 was found to be 321 nM in experiment [1] and 74.3 nM in the experiment on Primary human T-cells.
The corresponding values for `Cc1ccc(Nc2ncc(F)c(Nc3ccc(O)cc3)n2)cc1S(N)(=O)=O` [VI-102, N2-(3-Aminosulfonyl-4-methylphenyl)-5-fluoro-N4-[4-hydroxyphenyl]-2,4-pyrimidinediamine] are 183 nM and 135 nM.
Turning to `COc1ccc(Nc2nc(Nc3cccc(S(N)(=O)=O)c3)ncc2F)cc1Cl` [VI-107, N2-(3-Aminosulfonylphenyl)-5-fluoro-N4-(4-methoxy-3-chlorophenyl]-2,4-pyrimidinediamine], the half-maximal inhibitory concentration (IC50) in experiment [1] is 159 nM; in the experiment on Primary human T-cells, 74.1 nM.
The corresponding values for `NS(=O)(=O)c1cccc(Nc2ncc(F)c(Nc3ccc(Cl)c(Cl)c3)n2)c1` [VI-110, N2-(3-Aminosulfonylphenyl)-N4-(3,4-dichlorophenyl)-5-fluoro-2,4-pyrimidinediamine] are 83.6 nM and 345 nM.
Regarding `Cc1ccc(Nc2ncc(F)c(Nc3ccc(C)c(S(N)(=O)=O)c3)n2)cc1S(N)(=O)=O` [VI-114, N2,N4-Bis-(3-aminosulfonyl-4-methylphenyl)-5-fluoro-2,4-pyrimidinediamine], the IC50 in experiment [1] came to 210 nM; in the experiment with Primary human T-cells, 2240 nM.

The record behind these values is patent US11827628B2, “Compositions and methods for inhibition of the JAK pathway” (Rigel Pharmaceuticals, Inc., priority 2005, dated 2023).
